{"source": "BindingDB's records for doi:10.1021/acsmedchemlett.8b00549", "about": "(Stellenbosch University, 2019)", "key": {"[1]": {"test": "Inhibition of HIV1 reverse transcriptase G190A mutant in HIV1 infected HEK293T cells harboring luciferase gene assessed as reduction in viral infection after 48 hrs by Bright-Glo luciferase assay"}, "[2]": {"test": "Inhibition of HIV1 reverse transcriptase V106M mutant in HIV1 infected HEK293T cells harboring luciferase gene assessed as reduction in viral infection after 48 hrs by Bright-Glo luciferase assay"}, "[3]": {"test": "Inhibition of HIV1 reverse transcriptase Y188H mutant in HIV1 infected HEK293T cells harboring luciferase gene assessed as reduction in viral infection after 48 hrs by Bright-Glo luciferase assay"}, "[4]": {"test": "Inhibition of HIV1 reverse transcriptase Y181C mutant in HIV1 infected HEK293T cells harboring luciferase gene assessed as reduction in viral infection after 48 hrs by Bright-Glo luciferase assay"}, "[5]": {"test": "Inhibition of HIV1 reverse transcriptase K103N mutant in HIV1 infected HEK293T cells harboring luciferase gene assessed as reduction in viral infection after 48 hrs by Bright-Glo luciferase assay"}, "[6]": {"test": "Inhibition of HIV1 reverse transcriptase Y188C mutant in HIV1 infected HEK293T cells harboring luciferase gene assessed as reduction in viral infection after 48 hrs by Bright-Glo luciferase assay"}, "[7]": {"test": "Inhibition of wild-type HIV1 reverse transcriptase in HIV1 infected HEK293T cells harboring luciferase gene assessed as reduction in viral infection after 48 hrs by Bright-Glo luciferase assay"}, "[8]": {"test": "Inhibition of HIV1 reverse transcriptase K103N/Y181C double mutant in HIV1 infected HEK293T cells harboring luciferase gene assessed as reduction in viral infection after 48 hrs by Bright-Glo luciferase assay"}}}
{"smiles": "Cn1c(=O)[nH]c2cccc(Oc3cc(Cl)cc(C#N)c3)c21", "values": [{"measurement": "IC50", "setting": "[1]", "result": 107, "unit": "nM"}, {"measurement": "IC50", "setting": "[2]", "result": 494, "unit": "nM"}, {"measurement": "IC50", "setting": "[3]", "result": 74, "unit": "nM"}, {"measurement": "IC50", "setting": "[4]", "result": 55, "unit": "nM"}, {"measurement": "IC50", "setting": "[5]", "result": 126, "unit": "nM"}, {"measurement": "IC50", "setting": "[6]", "result": 236, "unit": "nM"}, {"measurement": "IC50", "setting": "[7]", "result": 29, "unit": "nM"}]}
{"smiles": "CCn1c(=O)[nH]c2cccc(Oc3cc(C#N)cc(/C=C/C#N)c3)c21", "values": [{"measurement": "IC50", "setting": "[1]", "result": 377, "unit": "nM"}, {"measurement": "IC50", "setting": "[2]", "result": 926, "unit": "nM"}, {"measurement": "IC50", "setting": "[3]", "result": 468, "unit": "nM"}, {"measurement": "IC50", "setting": "[4]", "result": 73, "unit": "nM"}, {"measurement": "IC50", "setting": "[5]", "result": 166, "unit": "nM"}, {"measurement": "IC50", "setting": "[6]", "result": 14, "unit": "nM"}, {"measurement": "IC50", "setting": "[7]", "result": 49, "unit": "nM"}, {"measurement": "IC50", "setting": "[8]", "result": 51, "unit": "nM"}]}
{"smiles": "CC1(C)OC(=O)Nc2cccc(Oc3cc(Cl)cc(C#N)c3)c21", "values": [{"measurement": "IC50", "setting": "[1]", "result": 2760, "unit": "nM"}, {"measurement": "IC50", "setting": "[2]", "result": 630, "unit": "nM"}, {"measurement": "IC50", "setting": "[3]", "result": 1150, "unit": "nM"}, {"measurement": "IC50", "setting": "[4]", "result": 28, "unit": "nM"}, {"measurement": "IC50", "setting": "[5]", "result": 798, "unit": "nM"}, {"measurement": "IC50", "setting": "[6]", "result": 7, "unit": "nM"}, {"measurement": "IC50", "setting": "[7]", "result": 21, "unit": "nM"}, {"measurement": "IC50", "setting": "[8]", "result": 894, "unit": "nM"}]}
{"smiles": "CCn1c(=O)[nH]c2cccc(Oc3cc(Cl)cc(C#N)c3)c21", "values": [{"measurement": "IC50", "setting": "[1]", "result": 126, "unit": "nM"}, {"measurement": "IC50", "setting": "[2]", "result": 293, "unit": "nM"}, {"measurement": "IC50", "setting": "[3]", "result": 415, "unit": "nM"}, {"measurement": "IC50", "setting": "[4]", "result": 18, "unit": "nM"}, {"measurement": "IC50", "setting": "[5]", "result": 111, "unit": "nM"}, {"measurement": "IC50", "setting": "[6]", "result": 7, "unit": "nM"}, {"measurement": "IC50", "setting": "[7]", "result": 26, "unit": "nM"}, {"measurement": "IC50", "setting": "[8]", "result": 52, "unit": "nM"}]}
{"smiles": "CCn1c(=O)[nH]c2cccc(Oc3ccccc3)c21", "values": [{"measurement": "IC50", "setting": "[7]", "result": 3880, "unit": "nM"}]}
{"smiles": "CCC(c1ccccc1)n1c(=O)[nH]c2ccc(Cl)cc21", "note": "(stereo unspecified)", "values": [{"measurement": "IC50", "setting": "[4]", "result": "> 200", "unit": "nM"}, {"measurement": "IC50", "setting": "[5]", "result": "> 200", "unit": "nM"}, {"measurement": "IC50", "setting": "[7]", "result": 36, "unit": "nM"}]}
{"smiles": "CCOC(=O)c1[nH]c2ccc(Cl)cc2c1C(SC)c1ccccc1", "note": "(stereo unspecified)", "values": [{"measurement": "IC50", "setting": "[7]", "result": 39, "unit": "nM"}]}
{"smiles": "CCOC(=O)c1[nH]c2ccc(Cl)cc2c1C(OC)c1ccccc1", "note": "(stereo unspecified)", "values": [{"measurement": "IC50", "setting": "[7]", "result": 16, "unit": "nM"}]}
{"smiles": "CCCn1c(=O)[nH]c2cccc(Oc3cc(Cl)cc(C#N)c3)c21", "values": [{"measurement": "IC50", "setting": "[7]", "result": 50, "unit": "nM"}]}
{"smiles": "CCn1c(=O)[nH]c2cccc(Oc3ccnc(Cl)c3)c21", "values": [{"measurement": "IC50", "setting": "[7]", "result": "> 44100", "unit": "nM"}]}
{"smiles": "CCn1c(=O)[nH]c2cccc(Oc3cc(C#N)ccn3)c21", "values": [{"measurement": "IC50", "setting": "[7]", "result": 1360, "unit": "nM"}]}
{"smiles": "CCOC(=O)c1[nH]c2ccc(Cl)cc2c1C(OC)c1cc(C)cc(C)c1", "note": "(stereo unspecified)", "values": [{"measurement": "IC50", "setting": "[7]", "result": 34, "unit": "nM"}]}
{"smiles": "CCn1c(=O)[nH]c2cccc(Oc3cccc4ccccc34)c21", "values": [{"measurement": "IC50", "setting": "[7]", "result": 2270, "unit": "nM"}]}
{"smiles": "CCOC(=O)c1[nH]c2ccc(Cl)cc2c1C(SC)c1cc(C)cc(C)c1", "note": "(stereo unspecified)", "values": [{"measurement": "IC50", "setting": "[7]", "result": 60, "unit": "nM"}]}
{"smiles": "CCn1c(=O)[nH]c2cccc(Oc3ccnc(C#N)c3)c21", "values": [{"measurement": "IC50", "setting": "[7]", "result": 13300, "unit": "nM"}]}
{"smiles": "CCn1c(=O)[nH]c2cccc(Oc3cc(C)cc(C)c3)c21", "values": [{"measurement": "IC50", "setting": "[7]", "result": 303, "unit": "nM"}]}
{"smiles": "CCn1c(=O)[nH]c2cccc(Oc3cc(C#N)cc(C#N)c3)c21", "values": [{"measurement": "IC50", "setting": "[7]", "result": 63, "unit": "nM"}]}
